Non-standard residues stand in square brackets, D forms with d. *: point of attachment. Phe(F5) = N[C@@H](Cc1c(F)c(F)c(F)c(F)c1F)C(=O)O; Phe(3,4-F2) = N[C@@H](Cc1ccc(F)c(F)c1)C(=O)O; Phe(2-Cl) = N[C@@H](Cc1ccccc1Cl)C(=O)O; Phe(4-F) = N[C@@H](Cc1ccc(F)cc1)C(=O)O; Phe(2-F) = N[C@@H](Cc1ccccc1F)C(=O)O; ACC = NC(=O)Cc1cc(=O)oc2cc(N*)ccc12; Met(O) = CS(=O)CC[C@H](N)C(=O)O; Tic = O=C(O)[C@@H]1Cc2ccccc2CN1; dOrn = NCCC[C@@H](N)C(=O)O; Orn = NCCC[C@H](N)C(=O)O; Dab = NCC[C@H](N)C(=O)O
Experiments:
Type in all cases: biochemical
[1] = target: T1, cathepsin L (Homo sapiens, UniProt P07711); assay: Kinetic parameters of ACC substrates with cathepsin L; details: pH 5.5, 37 °C, cathepsin L 0.1–0.5 nM, SD below 15%
T1 construct: made in house
T1 sequence (P07711 114-333): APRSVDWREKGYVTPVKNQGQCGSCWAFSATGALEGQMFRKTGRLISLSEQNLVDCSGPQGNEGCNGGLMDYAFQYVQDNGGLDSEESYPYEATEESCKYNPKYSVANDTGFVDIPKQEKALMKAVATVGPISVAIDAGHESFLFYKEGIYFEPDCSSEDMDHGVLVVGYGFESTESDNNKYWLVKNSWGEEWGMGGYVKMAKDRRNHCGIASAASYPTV
Protocol: (§1) All kinetic experiments were performed using fMax (Molecular Devices) and CLARIOStar (BMG LABTECH) spectrofluorimeters operating in kinetic mode using 96-well plates. ACC-labeled substrates were screened using 355 nm and 460 nm wavelengths (excitation and emission, respectively). […] The buffer was prepared at room temperature and the enzyme kinetic studies were performed at 37 °C.
(§2) Classic substrate velocity plots were analyzed according to Michaelis–Menten kinetics and a detailed protocol for the determination of kinetic parameters for ACC-tagged substrates is found elsewhere.[56] […] Experiments were repeated at least three times and results are presented as an average. The SDs were below 15%.

[2] = target: T2, cathepsin B (Homo sapiens, UniProt P07858); assay: Substrate selectivity screening, rate of hydrolysis, cathepsin B; details: Table S4; substrate 100µM, cathepsin 5nM; pH 5.5, 37 °C; average of at least three screenings
T2 construct: made in house
Protocol: as §1
(§3) All potentially selective cathepsin L substrates were tested for their selectivity against a panel of five different cathepsins, containing cathepsins L, V, S, K and […], at concentrations of 2 μM and 100 μM. To obtain reliable results the concentration of each cathepsin was 5 nM. Substrate hydrolysis was carried out for 10 min (for cathepsin L) and for up to 60 min (for other cathepsins). Hydrolysis rates (RFU s^–1) are presented as average values from at least three screenings.

[3] = target: T3, cathepsin K (Homo sapiens, UniProt P43235); assay: Substrate selectivity screening, rate of hydrolysis, cathepsin K; details: Table S4; substrate 100µM, cathepsin 5nM; pH 5.5, 37 °C; average of at least three screenings
T3 construct: made in house
T3 sequence (P43235 115-329): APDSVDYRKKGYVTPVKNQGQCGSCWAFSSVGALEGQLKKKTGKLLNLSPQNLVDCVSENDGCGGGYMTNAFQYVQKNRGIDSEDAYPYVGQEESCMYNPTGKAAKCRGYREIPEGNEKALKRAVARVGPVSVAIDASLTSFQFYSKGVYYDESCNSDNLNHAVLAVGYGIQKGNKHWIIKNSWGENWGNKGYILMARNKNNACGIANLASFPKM
Protocol: as §1, §3

[4] = target: T1, cathepsin L; assay: Substrate selectivity screening, rate of hydrolysis, cathepsin L; details: Table S4; substrate 100µM, cathepsin 5nM; pH 5.5, 37 °C; average of at least three screenings
Protocol: as §1, §3

[5] = target: T4, cathepsin S (Homo sapiens, UniProt P25774); assay: Substrate selectivity screening, rate of hydrolysis, cathepsin S; details: Table S4; substrate 100µM, cathepsin 5nM; pH 5.5, 37 °C; average of at least three screenings
T4 construct: made in house
T4 sequence (P25774 115-331): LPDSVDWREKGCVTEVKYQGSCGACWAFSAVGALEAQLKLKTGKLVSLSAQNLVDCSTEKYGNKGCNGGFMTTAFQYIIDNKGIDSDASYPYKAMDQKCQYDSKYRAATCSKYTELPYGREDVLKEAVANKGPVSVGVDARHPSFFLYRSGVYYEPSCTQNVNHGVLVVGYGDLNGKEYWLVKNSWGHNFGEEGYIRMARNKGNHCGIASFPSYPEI
Protocol: as §1, §3

[6] = target: T5, cathepsin V (Homo sapiens, UniProt O60911); assay: Substrate selectivity screening, rate of hydrolysis, cathepsin V; details: Table S4; substrate 100µM, cathepsin 5nM; pH 5.5, 37 °C; average of at least three screenings
T5 construct: made in house
T5 sequence (O60911 114-334): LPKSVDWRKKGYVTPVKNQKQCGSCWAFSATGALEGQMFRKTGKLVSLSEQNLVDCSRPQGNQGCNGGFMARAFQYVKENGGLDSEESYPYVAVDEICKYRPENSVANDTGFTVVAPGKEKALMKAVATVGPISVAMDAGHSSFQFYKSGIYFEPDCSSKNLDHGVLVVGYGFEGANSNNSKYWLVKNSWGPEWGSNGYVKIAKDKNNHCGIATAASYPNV
Protocol: as §1, §3

[7] = target: T5, cathepsin V; assay: Kinetic parameters of ACC substrates with cathepsin V; details: Fig. 5B; pH 5.5, 37 °C; cathepsin V 10–20 nM; triplicate, SD below 15%
Protocol: as §1, §2

[8] = target: T2, cathepsin B; assay: Kinetic parameters of ACC substrates with cathepsin B; details: Fig. 5B; pH 5.5, 37 °C; cathepsin B 4–15 nM; triplicate, SD below 15%
Protocol: as §1, §2

[9] = target: T3, cathepsin K; assay: Kinetic parameters of ACC substrates with cathepsin K; details: Fig. 5B; pH 5.5, 37 °C; cathepsin K 5–20 nM; triplicate, SD below 15%
Protocol: as §1, §2

[10] = target: T4, cathepsin S; assay: Kinetic parameters of ACC substrates with cathepsin S; details: Fig. 5B; pH 5.5, 37 °C; cathepsin S 5–20 nM; triplicate, SD below 15%
Protocol: as §1, §2

[11] = target: T1, cathepsin L; assay: kobs/I of activity-based probes, cathepsin L; details: Fig. 6A; pseudo-first order, probe at least 5-fold excess over cathepsin, 100 μM ACC substrate; pH 5.5, 37 °C; triplicate, SD below 20%
Protocol: as §1
(§4) For the kinetic studies, five recombinant human cathepsins (B, L, V, K and S) were expressed and purified and active site titrated using an E64 inhibitor. The kobs/I parameter was measured under pseudo-first order kinetic conditions, as described.[40] The cathepsin of interest was mixed with various concentrations of probe (at least 5-fold excess over cathepsin) and 100 μM ACC-fluorescence substrate. The experiments were repeated at least three times, and the results are presented as an average. The SDs were below 20%.

[12] = target: T5, cathepsin V; assay: kobs/I of activity-based probes, cathepsin V; details: Fig. 6A; pseudo-first order, probe at least 5-fold excess over cathepsin, 100 μM ACC substrate; pH 5.5, 37 °C; triplicate, SD below 20%
Protocol: as §1, §4

[13] = target: T2, cathepsin B; assay: kobs/I of activity-based probes, cathepsin B; details: Fig. 6A; pseudo-first order, probe at least 5-fold excess over cathepsin, 100 μM ACC substrate; pH 5.5, 37 °C; triplicate, SD below 20%
Protocol: as §1, §4

[14] = target: T4, cathepsin S; assay: kobs/I of activity-based probes, cathepsin S; details: Fig. 6A; pseudo-first order, probe at least 5-fold excess over cathepsin, 100 μM ACC substrate; pH 5.5, 37 °C; triplicate, SD below 20%
Protocol: as §1, §4

[15] = target: T3, cathepsin K; assay: kobs/I of activity-based probes, cathepsin K; details: Fig. 6A; pseudo-first order, probe at least 5-fold excess over cathepsin, 100 μM ACC substrate; pH 5.5, 37 °C; triplicate, SD below 20%
Protocol: as §1, §4

Substance | Relative substrate activity (rate of hydrolysis), cathepsin B [2] [RFU/s] | Relative substrate activity (rate of hydrolysis), cathepsin K [3] [RFU/s] | Relative substrate activity (rate of hydrolysis), cathepsin L [4] [RFU/s] | Relative substrate activity (rate of hydrolysis), cathepsin S [5] [RFU/s] | Relative substrate activity (rate of hydrolysis), cathepsin V [6] [RFU/s] | kobs/I Cath-L [11] | kobs/I Cath-V [12] | kobs/I Cath-B [13] | kobs/I Cath-S [14] | kobs/I Cath-K [15] | further results
Ac-HRFR-{ACC} (SMILES CC(=O)N[C@@H](Cc1c[nH]cn1)C(=O)N[C@@H](CCCNC(=N)N)C(=O)N[C@@H](Cc1ccccc1)C(=O)N[C@@H](CCCNC(=N)N)C(=O)Nc1ccc2c(CC(N)=O)cc(=O)oc2c1) [reference compound] | 272 | 24.5 | 875 | 40.3 | 224 |  |  |  |  |  | kcat/KM ([1]; Fig. 4B, ACC substrates, 100 mM sodium acetate, 100 mM NaCl, 10 mM DTT, 1 mM EDTA, average of at least three): 13,050,000 M^-1s^-1
Ac-H[dL][Phe(F5)][Orn]-{ACC} (SMILES CC(=O)N[C@@H](Cc1c[nH]cn1)C(=O)N[C@H](CC(C)C)C(=O)N[C@@H](Cc1c(F)c(F)c(F)c(F)c1F)C(=O)N[C@@H](CCCN)C(=O)Nc1ccc2c(CC(N)=O)cc(=O)oc2c1) | 0.0 | 0.3 | 153 | 0.0 | 0.0 |  |  |  |  |  | 
Ac-H[dR][Phe(3,4-F2)]L-{ACC} (SMILES CC(=O)N[C@@H](Cc1c[nH]cn1)C(=O)N[C@H](CCCNC(=N)N)C(=O)N[C@@H](Cc1ccc(F)c(F)c1)C(=O)N[C@@H](CC(C)C)C(=O)Nc1ccc2c(CC(N)=O)cc(=O)oc2c1) | 22.3 | 0.0 | 474 | 12.7 | 30.5 |  |  |  |  |  | 
Ac-H[dV][Phe(F5)]R-{ACC} (SMILES CC(=O)N[C@@H](Cc1c[nH]cn1)C(=O)N[C@@H](C(=O)N[C@@H](Cc1c(F)c(F)c(F)c(F)c1F)C(=O)N[C@@H](CCCNC(=N)N)C(=O)Nc1ccc2c(CC(N)=O)cc(=O)oc2c1)C(C)C) | 0.7 | 1.1 | 706 | 0.0 | 4.4 |  |  |  |  |  | kcat/KM Cath-L ([1]; Fig. 5B, triplicate): 747,400 M^-1s^-1; kcat/KM Cath-V [7]: 539 M⁻¹ s⁻¹; kcat/KM Cath-B [8]: 252 M⁻¹ s⁻¹; kcat/KM Cath-K [9]: < 10 M⁻¹ s⁻¹; kcat/KM Cath-S [10]: < 10 M⁻¹ s⁻¹
Ac-Pip-DLeu-Phe(3,4-F2)-Arg-ACC | 9.4 | 1.2 | 699 | 7.8 | 103 |  |  |  |  |  | 
Ac-[Met(O)][dR][Phe(2-F)]R-{ACC} (SMILES CC(=O)N[C@@H](CCS(C)=O)C(=O)N[C@H](CCCNC(=N)N)C(=O)N[C@@H](Cc1ccccc1F)C(=O)N[C@@H](CCCNC(=N)N)C(=O)Nc1ccc2c(CC(N)=O)cc(=O)oc2c1) | 76.2 | 0.2 | 658 | 21.1 | 129 |  |  |  |  |  | 
Ac-[Tic][Dab][Phe(3,4-F2)]R-{ACC} (SMILES CC(=O)N1Cc2ccccc2C[C@H]1C(=O)N[C@@H](CCN)C(=O)N[C@@H](Cc1ccc(F)c(F)c1)C(=O)N[C@@H](CCCNC(=N)N)C(=O)Nc1ccc2c(CC(N)=O)cc(=O)oc2c1) | 41.2 | 0.2 | 825 | 2.8 | 28.4 |  |  |  |  |  | 
Ac-[Tic][Orn][Phe(4-F)]L-{ACC} (SMILES CC(=O)N1Cc2ccccc2C[C@H]1C(=O)N[C@@H](CCCN)C(=O)N[C@@H](Cc1ccc(F)cc1)C(=O)N[C@@H](CC(C)C)C(=O)Nc1ccc2c(CC(N)=O)cc(=O)oc2c1) | 15.0 | 0.0 | 684 | 4.7 | 31.7 |  |  |  |  |  | 
Ac-[Tic][dOrn][Phe(2-Cl)]K-{ACC} (SMILES CC(=O)N1Cc2ccccc2C[C@H]1C(=O)N[C@H](CCCN)C(=O)N[C@@H](Cc1ccccc1Cl)C(=O)N[C@@H](CCCCN)C(=O)Nc1ccc2c(CC(N)=O)cc(=O)oc2c1) [Tic-DArg-Phe(2-Cl)-Lys] | 3.1 | 0.0 | 134 | 10.3 | 36.1 |  |  |  |  |  | 
BODIPYFL-6-ahx-Ala-Arg-Leu-Arg-AOMK [MP-pc2, BDPFL-6-ahx-Ala-Arg-Leu-Arg-AOMK, BODIPY-FL-labeled pan-cathepsin probe] |  |  |  |  |  | 8,200 M^-1s^-1 | 9,800 M^-1s^-1 | 23,200 M^-1s^-1 | 18,500 M^-1s^-1 | 350 M⁻¹ s⁻¹ | 
Cy3-6-ahx-Ala-Arg-Leu-Arg-AOMK [MP-pc3, Cy3-labeled pan-cathepsin probe] |  |  |  |  |  | 16,900 M^-1s^-1 | 6,700 M^-1s^-1 | 75,400 M^-1s^-1 | 69,000 M^-1s^-1 | 1,350 M^-1s^-1 | 
biotin-6-ahx-His-DThr-Phe(F5)-Arg-AOMK [MP-cL1] |  |  |  |  |  | 26,600 M^-1s^-1 | 780 M⁻¹ s⁻¹ | 1,900 M^-1s^-1 | < 100 M⁻¹ s⁻¹ | < 100 M⁻¹ s⁻¹ | 
biotin-6-ahx-His-DThr-Phe(F5)-Lys-AOMK [MP-cL2] |  |  |  |  |  | 10,500 M^-1s^-1 | 360 M⁻¹ s⁻¹ | 1,250 M^-1s^-1 | < 100 M⁻¹ s⁻¹ | < 100 M⁻¹ s⁻¹ | 

— publication PMC5896380, “Selective imaging of cathepsin L in breast cancer by fluorescent activity-based probes” (Chemical Science, 2018)
